Holding throughout (assay): TEAD lipid pocket TR-FRET (Lipid HTRF) probe competition assay
What all share (type): binding
(Time-resolved FRET reads energy transfer from a long-lived donor to a nearby acceptor.)

The target of one assay is TEAD4 (Homo sapiens (Human), UniProt Q15561). The procedure: (§1) His-tagged TEAD proteins are pre-incubated with TEAD project compounds for 30 minutes or 4 hours at room temperature. Biotinylated lipid pocket probes are then added to the TEAD/Compound mixture and incubated for 60 minutes at room temperature. The lipid pocket probe competes with the test compound for the TEAD lipid pocket until equilibrium is reached. After 60 minutes, Europium labelled anti-His (Perkin Elmer #ADO 110) and XL665 labelled streptavidin (CIS Bio 610SAXAC) are added to the TEAD/test compound/lipid pocket mixture and incubated for 30 minutes or 4 hours. […] If a TEAD lipid pocket binder such as binds and displaces the lipid pocket probe, the disruption of the TEAD:probe interaction results in a decrease in TR-FRET signal. The potency of compounds as TEAD lipid pocket binders is determined by IC50 value generated using a non-linear 4 parameter curve fit.
TEAD4, sequence (Q15561 whole entry, species assumed): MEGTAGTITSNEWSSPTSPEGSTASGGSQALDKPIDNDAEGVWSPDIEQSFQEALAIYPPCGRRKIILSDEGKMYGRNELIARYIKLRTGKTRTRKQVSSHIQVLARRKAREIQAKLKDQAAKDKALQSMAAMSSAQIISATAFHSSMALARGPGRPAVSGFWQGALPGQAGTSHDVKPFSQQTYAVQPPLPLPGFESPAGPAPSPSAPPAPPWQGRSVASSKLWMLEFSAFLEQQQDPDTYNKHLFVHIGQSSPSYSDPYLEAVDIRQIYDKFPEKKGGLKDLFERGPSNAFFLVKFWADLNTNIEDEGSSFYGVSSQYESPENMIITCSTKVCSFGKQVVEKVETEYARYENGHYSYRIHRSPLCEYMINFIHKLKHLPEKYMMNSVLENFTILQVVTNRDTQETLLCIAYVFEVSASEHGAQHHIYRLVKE
(§2) Note that the “Compound Number” in Table 2 and Table 3 corresponds to the “Compound Number” in Table 1.

The target of a further assay is TEAD2 (Homo sapiens (Human), UniProt Q15562). How it is done:
as §1, §2

The next assay has as its target TEAD3 (Homo sapiens (Human), UniProt Q99594). Conditions: 4 hours incubation with compound. The procedure:
as §1, §2

In a further assay the target is TEAD1 (Homo sapiens (Human), UniProt P28347). The procedure: as §1, §2
TEAD1, sequence (P28347 whole entry, species assumed): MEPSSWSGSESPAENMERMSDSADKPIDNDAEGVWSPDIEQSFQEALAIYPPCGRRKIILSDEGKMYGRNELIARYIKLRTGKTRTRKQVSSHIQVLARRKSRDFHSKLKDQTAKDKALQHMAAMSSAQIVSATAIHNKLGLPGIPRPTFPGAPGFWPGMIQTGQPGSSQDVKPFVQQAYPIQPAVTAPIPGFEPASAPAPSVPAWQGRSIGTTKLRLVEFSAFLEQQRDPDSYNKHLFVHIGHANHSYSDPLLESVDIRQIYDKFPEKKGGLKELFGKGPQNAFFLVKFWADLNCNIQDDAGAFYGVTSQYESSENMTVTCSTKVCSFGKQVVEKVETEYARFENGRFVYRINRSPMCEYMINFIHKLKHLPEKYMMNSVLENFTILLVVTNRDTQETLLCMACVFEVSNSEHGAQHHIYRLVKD
The mark [1] stands for this setting: 4 hours incubation with compound, read-out: Lipid HTRF TEAD4 IC50.
Where [2] appears, read: 4 hours incubation with compound, read-out: Lipid HTRF TEAD2 IC50.
[3] abbreviates: 4 hours incubation with compound, read-out: Lipid HTRF TEAD1 IC50.
The mark [4] stands for this setting: Lipid HTRF TEAD4 IC50, 4 hours incubation with compound.

Here are results for 19 compounds from US11787775B2, “Therapeutic compounds and methods of use” (priority 2020, dated 2023).

Where two headings read alike, the source gives them in different places.

TEAD3, sequence (Q99594 whole entry, species assumed): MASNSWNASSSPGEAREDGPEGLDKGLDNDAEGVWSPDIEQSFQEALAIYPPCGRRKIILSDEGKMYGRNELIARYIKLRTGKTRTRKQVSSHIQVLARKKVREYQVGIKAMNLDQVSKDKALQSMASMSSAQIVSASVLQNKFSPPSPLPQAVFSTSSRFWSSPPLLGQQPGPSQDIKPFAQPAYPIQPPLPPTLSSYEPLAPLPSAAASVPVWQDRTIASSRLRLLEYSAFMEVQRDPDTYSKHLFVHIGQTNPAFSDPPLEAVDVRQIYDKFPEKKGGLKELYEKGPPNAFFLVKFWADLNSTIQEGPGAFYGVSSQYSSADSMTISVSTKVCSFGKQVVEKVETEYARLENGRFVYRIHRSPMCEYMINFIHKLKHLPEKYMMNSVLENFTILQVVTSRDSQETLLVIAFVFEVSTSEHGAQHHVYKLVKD
TEAD2, sequence (Q15562 whole entry): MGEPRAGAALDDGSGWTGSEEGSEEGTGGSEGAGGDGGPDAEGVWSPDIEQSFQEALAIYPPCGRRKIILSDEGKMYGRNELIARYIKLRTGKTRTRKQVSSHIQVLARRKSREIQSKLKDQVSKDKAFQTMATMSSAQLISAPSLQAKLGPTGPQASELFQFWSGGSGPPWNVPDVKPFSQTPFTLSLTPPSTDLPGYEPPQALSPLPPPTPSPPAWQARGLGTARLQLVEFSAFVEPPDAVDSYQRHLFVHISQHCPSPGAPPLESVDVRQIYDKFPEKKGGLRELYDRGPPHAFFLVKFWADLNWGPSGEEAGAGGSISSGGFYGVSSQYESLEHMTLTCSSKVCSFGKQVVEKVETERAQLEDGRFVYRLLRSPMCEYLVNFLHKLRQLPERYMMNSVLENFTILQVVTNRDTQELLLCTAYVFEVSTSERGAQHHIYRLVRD

Turning to `C=C(CNc1cc(-c2ncc(C(C)C)s2)c2c(c1C#N)CCO2)C(=O)NO` [Compound 27, 2-[[[4-cyano-7-(5-isopropylthiazol-2-yl)-2,3-dihydrobenzofuran-5-yl]amino]methyl]prop-2-enehydroxamic acid], the half-maximal inhibitory concentration (IC50) (commonly the concentration at which inhibition is half-maximal) at TEAD4 (setting [1]) was 170 nM; on TEAD2 (setting [2]), 110 nM; on TEAD3, greater than 50000 nM; on TEAD1 (setting [3]), 310 nM.

As for `[2H]C1([2H])COc2c(-c3ccc(C(C)C)cc3)cc(NCC(=C)C(=O)NO)c(C#N)c21` [Compound 29, 2-[[[4-cyano-3,3-dideuterio-7-(4-isopropylphenyl)-2H-benzofuran-5-yl]amino]methyl]prop-2-enehydroxamic acid], the IC50 on TEAD4 (setting [1]) stood at 40 nM; on TEAD2 (setting [2]), 10 nM; at TEAD3, 430 nM; at TEAD1 (setting [3]), 60 nM.

As for `C=C(CNc1cc(-c2nc(C(C)C)cs2)c2c(c1C#N)CCO2)C(=O)NO` [Compound 31, 2-[[[4-cyano-7-(4-isopropylthiazol-2-yl)-2,3-dihydrobenzofuran-5-yl]amino]methyl]prop-2-enehydroxamic acid], the IC50 was 36000 nM at TEAD4 (setting [1]), 860 nM at TEAD2 (setting [2]), greater than 50000 nM on TEAD3 and greater than 50000 nM at TEAD1 (setting [3]).

Turning to `C=C(CNc1cc(-c2cc(C(C)C)cs2)c2c(c1C#N)CCO2)C(=O)O` [Compound 32, 2-[[[4-cyano-7-(4-isopropyl-2-thienyl)-2,3-dihydrobenzofuran-5-yl]amino]methyl]prop-2-enoic acid], the IC50 came to 10 nM at TEAD4 (setting [1]), 40 nM on TEAD2 (setting [2]), 430 nM on TEAD3 and 10 nM at TEAD1 (setting [3]).

Take `[2H]C1([2H])COc2c(-c3ccc(C(C)C)cc3)cc(NCC(=C)C(N)=O)c(C#N)c21` [Compound 33, 2-[[[4-cyano-3,3-dideuterio-7-(4-isopropylphenyl)-2H-benzofuran-5-yl]amino]methyl]prop-2-enamide]: the IC50 on TEAD4 (setting [4]) was 80 nM; on TEAD2 (setting [2]), 60 nM; on TEAD3, 1400 nM; at TEAD1 (setting [3]), 180 nM.

Take `C=C(CNc1cc(-c2ccc(OC(F)(F)F)cc2)c2c(c1CO)CCO2)C(N)=O` [Compound 35, 2-[[[4-(hydroxymethyl)-7-[4-(trifluoromethoxy)phenyl]-2,3-dihydrobenzofuran-5-yl]amino]methyl]prop-2-enamide]: the IC50 on TEAD4 (setting [1]) worked out at 250 nM; on TEAD2 (setting [2]), 30 nM; at TEAD3, 1700 nM; on TEAD1 (setting [3]), 160 nM.

`C=C(CNc1cc(-n2ccc(C(C)C)n2)c2c(c1C#N)CCO2)C(=O)NO` [Compound 36, 2-[[[4-cyano-7-(3-isopropylpyrazol-1-yl)-2,3-dihydrobenzofuran-5-yl]amino]methyl]prop-2-enehydroxamic acid]: the IC50 was greater than 50000 nM at TEAD4 (setting [1]), 710 nM at TEAD2 (setting [2]), greater than 50000 nM at TEAD3 and greater than 50000 nM on TEAD1 (setting [3]).

As to `[2H]C1([2H])Cc2c(C#N)c(NCC(=C)C(=O)NO)cc(-c3ccc(OC(F)(F)F)cc3)c2O1` [Compound 37, 2-[[[4-cyano-2,2-dideuterio-7-[4-(trifluoromethoxy)phenyl]-3H-benzofuran-5-yl]amino]methyl]prop-2-enehydroxamic acid], the IC50 came out at 50 nM on TEAD4 (setting [1]); 10 nM at TEAD2 (Lipid HTRF TEAD2 IC50, 4 hours incubation with compound); 420 nM at TEAD3; 50 nM on TEAD1 (setting [3]).

Take `C=C(CNc1cc(-c2ccc(S(F)(F)(F)(F)F)cc2)c2c(c1C#N)CCO2)C(=O)NO` [Compound 38, 2-[[[4-cyano-7-[4-(pentafluoro-lambda6-sulfanyl)phenyl]-2,3-dihydrobenzofuran-5-yl]amino]methyl]prop-2-enehydroxamic acid]: the IC50 on TEAD4 (setting [1]) stood at 80 nM; on TEAD2 (setting [2]) it was 30 nM; on TEAD3, 710 nM; at TEAD1 (setting [3]), 90 nM.

As for `C=C(CNc1cc(-c2ccc(OC(F)(F)F)cc2)c2c(c1C#N)CCO2)C(=O)NO` [Compound 39, 2-[[[4-cyano-7-[4-(trifluoromethoxy)phenyl]-2,3-dihydrobenzofuran-5-yl]amino]methyl]prop-2-enehydroxamic acid], the IC50 is 60 nM on TEAD4 (setting [1]), 10 nM at TEAD2 (setting [2]), 400 nM on TEAD3 and 40 nM at TEAD1 (setting [3]).

In the case of `[2H]C1([2H])COc2c(-c3ccc(C(C)C)cc3)cc(NCC(=C)C(=O)O)c(C#N)c21` [Compound 40, 2-[[[4-cyano-3,3-dideuterio-7-(4-isopropylphenyl)-2H-benzofuran-5-yl]amino]methyl]prop-2-enoic acid], the IC50 on TEAD4 (setting [4]) stood at 20 nM; on TEAD2 (setting [2]), 40 nM; on TEAD3 it was 680 nM; on TEAD1 (Lipid HTRF TEAD1 IC50, 4 hours incubation with compound) it was 20 nM.

Take `C=C(CNc1cc(-c2ccc(OC(F)(F)F)cc2)c2ncsc2c1C#N)C(=O)NO` [Compound 41, 2-[[[7-cyano-4-[4-(trifluoromethoxy)phenyl]-1,3-benzothiazol-6-yl]amino]methyl]prop-2-enehydroxamic acid]: the IC50 on TEAD4 (setting [1]) turned out to be 40 nM; on TEAD2 (setting [2]) it was 10 nM; at TEAD3, 660 nM; at TEAD1 (setting [3]), 80 nM.

Regarding `C=C(CNc1cc(-c2ccc(OC(F)(F)F)cc2)c2c(c1C#N)CCO2)C(=O)N(C)O` [Compound 43, 2-[[[4-cyano-7-[4-(trifluoromethoxy)phenyl]-2,3-dihydrobenzofuran-5-yl]amino]methyl]-N-hydroxy-N-methyl-prop-2-enamide], the IC50 amounted to 520 nM at TEAD4 (setting [1]), 1700 nM on TEAD2 (setting [2]), 18000 nM on TEAD3 and 400 nM on TEAD1 (setting [3]).

With `C=C(CNc1cc(-c2ccc(OC(F)(F)F)cc2)c2c(c1C#N)CCO2)C(N)=O` [Compound 44, 2-[[[4-cyano-7-[4-(trifluoromethoxy)phenyl]-2,3-dihydrobenzofuran-5-yl]amino]methyl]prop-2-enamide], the IC50 was 140 nM at TEAD4 (setting [1]), 40 nM on TEAD2 (setting [2]), 1200 nM on TEAD3 and 110 nM on TEAD1 (setting [3]).

Turning to `C=C(CNc1cc(-c2ccc(S(F)(F)(F)(F)F)cc2)c2c(c1C#N)CCO2)C(=O)O` [Compound 45, 2-[[[4-cyano-7-[4-(pentafluoro-lambda6-sulfanyl)phenyl]-2,3-dihydrobenzofuran-5-yl]amino]methyl]prop-2-enoic acid], the IC50 on TEAD4 (setting [1]) was determined as 80 nM; at TEAD2 (setting [2]) it was 170 nM; at TEAD3, 920 nM; on TEAD1 (setting [3]), 30 nM.

For the compound `C=C(CNc1cc(-c2ccc(OC(F)(F)F)cc2)c2c(c1CO)CCO2)C(=O)NO` [Compound 46, 2-[[[4-(hydroxymethyl)-7-[4-(trifluoromethoxy)phenyl]-2,3-dihydrobenzofuran-5-yl]amino]methyl]prop-2-enehydroxamic acid], the half-maximal inhibitory concentration (IC50) was 60 nM on TEAD4 (setting [1]), 10 nM on TEAD2 (setting [2]), 440 nM at TEAD3 and 50 nM on TEAD1 (setting [3]).

`C=C(CNc1cc(-c2ccc(S(F)(F)(F)(F)F)cc2)c2c(c1C#N)CCO2)C(N)=O` [Compound 48, 2-[[[4-cyano-7-[4-(pentafluoro-lambda6-sulfanyl)phenyl]-2,3-dihydrobenzofuran-5-yl]amino]methyl]prop-2-enamide]: the IC50 at TEAD4 (setting [1]) was 260 nM; on TEAD2 (setting [2]) it was 220 nM; on TEAD3 it was 2600 nM; on TEAD1 (setting [3]), 250 nM.

Regarding `C=C(CNc1cc(-c2ncc(C(C)C)s2)c2c(c1C#N)CCO2)C(=O)O` [Compound 49, 2-[[[4-cyano-7-(5-isopropylthiazol-2-yl)-2,3-dihydrobenzofuran-5-yl]amino]methyl]prop-2-enoic acid], the IC50 at TEAD4 (setting [1]) came to 90 nM; at TEAD2 (setting [2]), 240 nM; at TEAD3 it was 2800 nM; on TEAD1 (setting [3]), 310 nM.

With `C=C(CNc1cc(-c2ccc(S(F)(F)(F)(F)F)cc2)c2ncsc2c1C#N)C(=O)NO` [Compound 51, 2-[[[7-cyano-4-[4-(pentafluoro-lambda6-sulfanyl)phenyl]-1,3-benzothiazol-6-yl]amino]methyl]prop-2-enehydroxamic acid], the IC50 on TEAD4 (setting [1]) stood at 60 nM; at TEAD2 (setting [2]) it was 30 nM; at TEAD3 it was 1200 nM; at TEAD1 (setting [3]), 200 nM.
